# Species: Rattus norvegicus
# Assay: DrugMatrix - Regimen: Daily Repeat
# Assay type: toxicity, organism-based, Sprague-Dawley
# Set-up: regimen Daily Repeat, gender Male, age 6-8 weeks
# Settings: in vivo, po, 0 mg/kg, route oral GAVAGE, dose level Control, vehicle 100 % WATER; for ABSOLUTE BASOPHIL / ABSOLUTE EOSINOPHIL / ABSOLUTE LYMPHOCYTE / ABSOLUTE MONOCYTE / ABSOLUTE SEGMENTED NEUTROPHIL / BASOPHIL / EOSINOPHIL / ERYTHROCYTE COUNT / HEMATOCRIT / HEMOGLOBIN / LEUKOCYTE COUNT / LYMPHOCYTE / MEAN CORPUSCULAR HEMOGLOBIN / MEAN CORPUSCULAR VOLUME / MONOCYTE / NEUTROPHIL / NUCLEATED RED BLOOD CELLS / PLATELET COUNT: tissue Blood; for ALANINE AMINOTRANSFERASE / ALBUMIN / ALKALINE PHOSPHATASE / ASPARTATE AMINOTRANSFERASE / BLOOD UREA NITROGEN / CARBON DIOXIDE / CHLORIDE / CHOLESTEROL / CREATINE PHOSPHOKINASE / CREATININE / GLUCOSE / LACTATE DEHYDROGENASE / LIPASE / PHOSPHORUS / POTASSIUM / SODIUM / TOTAL BILIRUBIN / TOTAL PROTEIN / URIC ACID: tissue Plasma
smiles,measurement,setting,value
CCCCCCCCCCCCCCCC[n+]1ccccc1.[Br-],ABSOLUTE BASOPHIL,"72 h, time 3 day",0 CELLS/uL
same,ABSOLUTE EOSINOPHIL,"72 h, time 3 day",58.83 CELLS/uL
same,ABSOLUTE LYMPHOCYTE,"72 h, time 3 day",11823.5 CELLS/uL
same,ABSOLUTE MONOCYTE,"72 h, time 3 day",169 CELLS/uL
same,ABSOLUTE SEGMENTED NEUTROPHIL,"72 h, time 3 day",815.33 CELLS/uL
same,BASOPHIL,"72 h, time 3 day",0%
same,EOSINOPHIL,"72 h, time 3 day",0.5%
same,ERYTHROCYTE COUNT,"72 h, time 3 day",5.52 x10E6/uL
same,HEMATOCRIT,"72 h, time 3 day",35.77%
same,HEMOGLOBIN,"72 h, time 3 day",14.28 G/DL
same,LEUKOCYTE COUNT,"72 h, time 3 day",12.87 x10E3/uL
same,LYMPHOCYTE,"72 h, time 3 day",91.67%
same,MEAN CORPUSCULAR HEMOGLOBIN,"72 h, time 3 day",25.92 pg
same,MEAN CORPUSCULAR VOLUME,"72 h, time 3 day",64.85 fL
same,MONOCYTE,"72 h, time 3 day",1.33%
same,NEUTROPHIL,"72 h, time 3 day",6.5%
same,NUCLEATED RED BLOOD CELLS,"72 h, time 3 day",0 /100WBC
same,PLATELET COUNT,"72 h, time 3 day",1246.17 x10E3/uL
same,ALANINE AMINOTRANSFERASE,"72 h, time 3 day",66 u/L
same,ALBUMIN,"72 h, time 3 day",4.25 G/DL
same,ALKALINE PHOSPHATASE,"72 h, time 3 day",416 u/L
same,ASPARTATE AMINOTRANSFERASE,"72 h, time 3 day",106.17 u/L
same,BLOOD UREA NITROGEN,"72 h, time 3 day",12.67 mg/dL
same,CARBON DIOXIDE,"72 h, time 3 day",31.83 mmol/L
same,CHLORIDE,"72 h, time 3 day",102.5 MEQ/L
same,CHOLESTEROL,"72 h, time 3 day",69 mg/dL
same,CREATINE PHOSPHOKINASE,"72 h, time 3 day",601.83 u/L
same,CREATININE,"72 h, time 3 day",0.18 mg/dL
same,GLUCOSE,"72 h, time 3 day",154.5 mg/dL
same,LACTATE DEHYDROGENASE,"72 h, time 3 day",301.83 u/L
same,LIPASE,"72 h, time 3 day",11.17 u/L
same,PHOSPHORUS,"72 h, time 3 day",12.08 mg/dL
same,POTASSIUM,"72 h, time 3 day",6.12 MEQ/L
same,SODIUM,"72 h, time 3 day",145.2 MEQ/L
same,TOTAL BILIRUBIN,"72 h, time 3 day",0.17 mg/dL
same,TOTAL PROTEIN,"72 h, time 3 day",6.1 G/DL
same,URIC ACID,"72 h, time 3 day",1.57 mg/dL
same,ABSOLUTE BASOPHIL,"120 h, time 5 day",0 CELLS/uL
same,ABSOLUTE EOSINOPHIL,"120 h, time 5 day",19.33 CELLS/uL
same,ABSOLUTE LYMPHOCYTE,"120 h, time 5 day",12577.83 CELLS/uL
same,ABSOLUTE MONOCYTE,"120 h, time 5 day",106.33 CELLS/uL
same,ABSOLUTE SEGMENTED NEUTROPHIL,"120 h, time 5 day",896.5 CELLS/uL
same,BASOPHIL,"120 h, time 5 day",0%
same,EOSINOPHIL,"120 h, time 5 day",0.17%
same,ERYTHROCYTE COUNT,"120 h, time 5 day",5.84 x10E6/uL
same,HEMATOCRIT,"120 h, time 5 day",36.88%
same,HEMOGLOBIN,"120 h, time 5 day",14.48 G/DL
same,LEUKOCYTE COUNT,"120 h, time 5 day",13.6 x10E3/uL
same,LYMPHOCYTE,"120 h, time 5 day",92.17%
same,MEAN CORPUSCULAR HEMOGLOBIN,"120 h, time 5 day",24.85 pg
same,MEAN CORPUSCULAR VOLUME,"120 h, time 5 day",63.23 fL
same,MONOCYTE,"120 h, time 5 day",0.83%
same,NEUTROPHIL,"120 h, time 5 day",6.83%
same,NUCLEATED RED BLOOD CELLS,"120 h, time 5 day",0 /100WBC
same,PLATELET COUNT,"120 h, time 5 day",1223.5 x10E3/uL
same,ALANINE AMINOTRANSFERASE,"120 h, time 5 day",55.33 u/L
same,ALBUMIN,"120 h, time 5 day",4.08 G/DL
same,ALKALINE PHOSPHATASE,"120 h, time 5 day",355.5 u/L
same,ASPARTATE AMINOTRANSFERASE,"120 h, time 5 day",87.67 u/L
same,BLOOD UREA NITROGEN,"120 h, time 5 day",15.33 mg/dL
same,CARBON DIOXIDE,"120 h, time 5 day",33.83 mmol/L
same,CHLORIDE,"120 h, time 5 day",99.67 MEQ/L
same,CHOLESTEROL,"120 h, time 5 day",72.17 mg/dL
same,CREATINE PHOSPHOKINASE,"120 h, time 5 day",268.33 u/L
same,CREATININE,"120 h, time 5 day",0.15 mg/dL
same,GLUCOSE,"120 h, time 5 day",152.5 mg/dL
same,LACTATE DEHYDROGENASE,"120 h, time 5 day",212.67 u/L
same,LIPASE,"120 h, time 5 day",10.83 u/L
same,PHOSPHORUS,"120 h, time 5 day",11.65 mg/dL
same,POTASSIUM,"120 h, time 5 day",6.73 MEQ/L
same,SODIUM,"120 h, time 5 day",142.43 MEQ/L
same,TOTAL BILIRUBIN,"120 h, time 5 day",0.23 mg/dL
same,TOTAL PROTEIN,"120 h, time 5 day",6.07 G/DL
same,URIC ACID,"120 h, time 5 day",1.7 mg/dL
